Results reported in US11384379B2, “Method for producing a protein and disaccharide using a Talaromyces cellulolyticus” (AJINOMOTO CO., INC., priority 2017, dated 2022).

What was measured:
[1] = tested on: T. cellulolyticus strains F09pyr+ and F09Δgh1-2; experiment: Halo assay for secretory cellulase by various beta-linked glucose oligosaccharides (CMC minimal medium, Congo Red); type: cell-based, Talaromyces cellulolyticus; conditions: 30° C. for 36 hours
Experimental: The strains F09pyr+ and F09Δgh1-2 were each grown on the minimal medium containing glucose as the carbon source for 3 days. […] After the culture, a Congo Red solution obtained by mixing 50 mM sodium phosphate buffer (pH 7.0) and 2 mg/ml Congo Red (Nacalai Tesque) in a volume ratio of 10:1 was added to the plate so that the Congo Red solution covered the entire plate, and the plate was left to stand for 30 minutes at a room temperature. Then, the Congo Red solution on the plate was removed, and sodium phosphate buffer (50 mM, pH 7.0) was added to the plate so that the sodium phosphate buffer covered the entire plate. The plate was again left to stand for 30 minutes at a room temperature. Then, the sodium phosphate buffer on the plate was removed, the surface of the plate was dried lightly, and observation of halo was carried out.

[2] = tested on: T. cellulolyticus strains Y-94, W363Frep, W449Frep, and C267Prep; experiment: Halo assay of strains Y-94, W363Frep, W449Frep, C267Prep with or without gentiobiose; type: cell-based, Talaromyces cellulolyticus; conditions: 1 mM gentiobiose in combination with W363F, W449F or C267P mutation in the gh1-2 gene; 5 days
Experimental: (§1) The strains Y-94, W363Frep, W449Frep, and C267Prep were each grown on the minimal medium containing CMC as the carbon source and on the minimal medium containing CMC as the carbon source and 1 mM gentiobiosefor 5 days according to the procedure described in Example (1-4). After the culture, a Congo Red solution obtained by mixing 50 mM sodium phosphate buffer (pH 7.0) and 2 mg/ml Congo Red (Nacalai Tesque) in a volume ratio of 10:1 was added to the plate so that the Congo Red solution covered the whole of the plate, and the plate was left to stand for 30 minutes at a room temperature. Then, the Congo Red solution on the plate was removed, and sodium phosphate buffer (50 mM, pH 7.0) was added to the plate so that the sodium phosphate buffer covered the whole of the plate. The plate was again left to stand for 30 minutes at a room temperature. Then, the sodium phosphate buffer on the plate was removed, the surface of the plate was dried lightly, and the diameter and width of the visualized halo were measured.

[3] = tested on: HSA expressing strain derived from the T. cellulolyticus strain F09ΔyscB; conditions: feeding solution Gentiobiose 80 g/L vs Cellobiose 80 g/L; 45 hours
Experimental: The HSA expressing strain derived from the T. cellulolyticus strain F09ΔyscB was inoculated into PD medium, and cultured at 30° C. One agar disk excised from around the edge of a formed colony was inoculated into 20 mL of a liquid culture medium containing 20 g/L glucose, 24 g/L KH2PO4, 5 g/L (NH4)2SO4, 2 g/L Urea, 1.2 g/L MgSO4-7H2O, 0.01 g/L ZnSO4-7H2O, 0.01 g/L MnSO4-5H2O, 0.01 g/L CuSO4-5H2O, 1 g/L Corn steep liquor (C4648, SIGMA), and 1 g/L Tween 80, and gyratory culture (220 rpm) was carried out at 30° C. for 5 days as a pre-culture. Then, 15 mL of the pre-culture broth was inoculated into 300 mL of a liquid culture medium containing 15 g/L glucose, 12 g/L KH2PO4, 10 g/L (NH4)2SO4, 1.2 g/L MgSO4-7H2O, 0.01 g/L ZnSO4-7H2O, 0.01 g/L MnSO4-5H2O, 0.01 g/L CuSO4-5H2O, 5 g/L Corn steep liquor, 1 g/L Tween 80, and 0.5 mL/L DISFOAM GD (NOF CORPORATION) in a jar fermenter, and fed-batch culture was carried out for 45 hours at a culture temperature of 30° C. and an aeration volume of 1/2 vvm, while controlling the dissolved oxygen concentration to be 5% or higher of the saturated oxygen concentration by stirring and controlling the pH to be 5 with using ammonia gas. […]
HSA was quantified by ELISA using Albumin ELISA Quantitation Kit, Human (Bethyl Laboratories, inc.).

[4] = tested on: T. cellulolyticus strain F09ΔcreA; experiment: Cellulase production fed-batch culture using gentiobiose, filter paper degradation activity; type: cell-based, Talaromyces cellulolyticus; conditions: carbon source other than glucose in the feed solution, compared with cellobiose; 72 hours
Experimental: The T. cellulolyticus strains F09ΔcreA and F09Δgh1-2ΔcreA were each inoculated into PD medium, and cultured at 30° C. One agar disk excised from around the edge of a formed colony was inoculated into 20 mL of a liquid culture medium containing 20 g/L glucose, 24 g/L KH2PO4, 5 g/L (NH4)2SO4, 2 g/L Urea, 1.2 g/L MgSO4-7H2O, 0.01 g/L ZnSO4-7H2O, 0.01 g/L MnSO4-5H2O, 0.01 g/L CuSO4-5H2O, 1 g/L Corn steep liquor (C4648, SIGMA), and 1 g/L Tween 80, and gyratory culture (220 rpm) was carried out at 30° C. for 5 days as a pre-culture. […]
The filter paper degradation activity (FPU/ml) of the obtained enzyme solutions was measured according to the following procedure, and the yield of the activity per carbon source was calculated on the basis of the consumption amount of sugar during the cultures by which the respective enzyme solutions were obtained.
To a 100-μl aliquot of a citrate buffer (50 mM, pH 5.0) containing a filter paper (Whatman No. 1, GE Healthcare) cut to 6 mm×10 mm, 50 μl of an appropriately diluted sample were added, and a reaction was carried out at 50° C. for 1 hour. […] Then, the absorbance at 540 nm of the supernatant was measured, and the value of the blank was subtracted therefrom, to calculate an increase in absorbance. […]

[5] = tested on: T. cellulolyticus strains F09pyrF+, F09Δgh1-2, F09Δbgl3A, and F09Δgh1-2Δbgl3A; experiment: Plate halo assay of double deficient strain of GH1-2 and BGL3A with or without gentiobiose; type: cell-based, Talaromyces cellulolyticus; conditions: 1 mM gentiobiose in combination with double disruption of the gh1-2 gene and the bgl3A gene; 5 days
Experimental: as §1, with “F09pyrF+” for “Y-94, W363Frep, W449Frep,”, “F09Δgh1-2 constructed in Example (1-1), the strain F09Δbgl3A constructed in Example (5-1), and the strain F09Δgh1-2Δbgl3A constructed in Example (7-1)” for “C267Prep”

[6] = Reaction of purified GH1-2 with high-concentration glucose, products by ion-exchange chromatography; type: biochemical; conditions: 1.4 g/L enzyme
Experimental: The purified GH1-2 was added to a 40% glucose aqueous solution at a concentration of 1.4 g/L, and reaction was carried out at 40° C. for 24 hours, to thereby obtain a sample. This sample was diluted 1000-fold with ion-exchanged water, and subjected to ion-exchange chromatography, to thereby analyze the reaction product. As a result, generation of beta-linked glucose oligosaccharides such as gentiobiose by GH1-2 was confirmed (FIG. 4).
The purified GH1-2 obtained in Example (2-1) was added to a 560 g/L glucose solution at a concentration of 1.4 g/L, to thereby obtain a reaction mixture. The reaction mixture was stirred so as to be uniform, and then left to stand at a room temperature for 52 hours. Then, the reaction mixture was heated at 95° C. for 10 minutes, to thereby obtain a saccharide solution containing gentiobiose. It was confirmed by the ion-exchange chromatography mentioned above that the saccharide solution contains 35.04 g/L gentiobiose.

[7] = Reaction of GH1-2s with cellobiose, products by TLC and ion exchange chromatography; type: biochemical; conditions: 30 μg/mL enzyme, 2% cellobiose aqueous solution, 40° C. for 1 to 60 minutes
Experimental: The purified GH1-2 was added to a 2% cellobiose aqueous solution at a concentration of 30 μg/mL, and a reaction solution after reaction at 40° C. for 1 to 60 minutes was used as a sample solution. The sample solution in 3 μL portions was spotted and developed on a thin layer chromatography plate (Merck) having a silica layer having a thickness of 200 μm, a size of 20×20 cm, and an average pore diameter of 60 angstroms. The composition of the developing solvent was chloroform:methanol:pure water=30:20:5 by volume ratio. An aniline phthalate method for detecting a reducing group was used for color development detection. […]
(§2) The reaction mixture obtained by using the wild-type GH1-2 was subject to ion exchange chromatography under the conditions described in Example (2-2), and the reaction product was analyzed, and observation of the hydrolysis product and the transglycosylation product was carried out over time. […]
as §2, with “Similarly, the” for “The”, “W363F mutant” for “wild-type”, “(2-2),” for “(2-2), and”, “time, and the result was compared with that observed when using the wild-type GH1-2 was observed.” for “time.”

[8] = Generation of gentiobiose from cellobiose by culture supernatant containing BGL3A; type: biochemical; conditions: enzyme solution, 50° C. for 24 hours
Experimental: (§3) The strains F09Δbgl3A and F09pyr+ were each inoculated into a 1/2 PDA plate, and cultured at 30° C. for 3 days. […] Sampling was appropriately carried out, cells were removed using a 0.22 μm syringe filter, and the obtained culture supernatant was used as an enzyme solution. Thereby, an enzyme solution derived from the strain F09Δbgl3A not containing BGL3A (hereinafter, also referred to as “-BGL3A”) and an enzyme solution derived from the strain F09pyr+ containing BGL3A (hereinafter, also referred to as “+BGL3A”) were prepared.
The two enzyme solutions obtained in Example (5-2) were used to degrade cellobiose, which is a decomposition product of a cellulosic substrate, under conditions of containing a certain concentration of glucose, and the product was analyzed. The reaction was carried out by placing 10 g of the reaction solution (Table 6) in a 50-ml tube and shaking the tube at 90 rpm at 50° C. for 24 hours.

[9] = Generation of gentiobiose from cellulosic substrate/glucose by culture supernatant containing BGL3A; type: biochemical; conditions: enzyme solution, no cellulosic substrate added, glucose 0-14.4 wt %, 50° C. for 24 hours
Experimental: as §3
The reaction was carried out by placing 10 g of the reaction solution (Table 5) in a 50-ml tube and shaking the tube at 90 rpm at 50° C. for 24 hours.

## gentiobiose
[1]; 0.01 mM in CMC minimal medium
  complementation of the decrease in the ability for secretory production of cellulase due to deletion of the gh1-2 gene (halo): complemented the decrease in the ability for secretory production of cellulase more strongly than other beta-linked glucose oligosaccharides
[1]; 1 mM in CMC minimal medium
  complementation of the decrease in the ability for secretory production of cellulase due to deletion of the gh1-2 gene (halo): strongly complements the decrease in the ability for secretory production of cellulase
[2]
  secretory production of cellulase (diameter and width of degradation halo): secretory production of cellulase is synergistically improved
[3]
  secretory production amount of HSA: greater in the case of feeding gentiobiose than in the case of feeding cellobiose
[4]
  efficiency of cellulase production (filter paper degradation activity, yield per carbon source): cellulase production with higher efficiency
[5]
  secretory production of cellulase (width of degradation halo): secretory production of cellulase is synergistically improved

## O=C[C@H](O)[C@@H](O)[C@H](O[C@@H]1O[C@H](CO)[C@@H](O)[C@H](O)[C@H]1O)[C@H](O)CO [cellobiose, reference compound]
[1]; 1 mM in CMC minimal medium
  complementation of the decrease in the ability for secretory production of cellulase due to deletion of the gh1-2 gene (halo): scarcely able to complement the decrease in the ability for secretory production of cellulase

B1: GH1-2: beta-glucosidase of T. cellulolyticus (SEQ ID NO: 23), His-tag at the C-terminus, expressed in E. coli and purified (protein, listed as Talaromyces cellulolyticus)
chain: MGSVTSTNGETPQSKLPADFVWGYATASYQIEGAYDEDGRGPSIWDTFSKTPGKVEDGTNGDVACDSYHRTHEDIAILKQYGAKLYRFSLSWPRIIPLGGRNDPINQKGIDFYSKFIDDLHAAGIEPFVTLYHWDLPDELFKRYGGPLNKDEFVADYANFARIAFQSFGHKVKHWVTFNEPWCSSVLGFNIGKHAPGRTSDRKKNPVGDGVREPWIAGHSLLVAHGTAVDIYRKEFKPTQGGEIGITLNGDWAEPWDPEDPEDIEACTRKLEFAISWFADPIYLGKYPDSVVKQIGDRLPPLTPDEVALIKGSNDFYGMNHYCANYIRHREGEADPDDTAGNLDHLFEDKFGNSIGPETNCEWLRPHPLGFRKLLKWLSDRYGYPKIYVTENGTSIKGENDLPLEELLNDEFRVQYYRDYVGAMADAATFDGVNVKKYMAWSLMDNFEWSEGYQSRFGVTYVDYKDNQKRIPKKSALVIGELFNKYISKE
modifications: C-terminal His-tag
[6]; 40% glucose aqueous solution, 40° C. for 24 hours
  activity on glucose (generation of beta-linked glucose oligosaccharides such as gentiobiose): has a transglycosylation activity
[6]; 560 g/L glucose solution, room temperature for 52 hours
  gentiobiose contained in the saccharide solution after reaction: 35.04 g/L
[7]
  activity on cellobiose (reaction products by TLC): has not only a hydrolysis activity but also has a transglycosylation activity

B2: BGL3A: major extracellular-secretion type beta-glucosidase of T. cellulolyticus (SEQ ID NO: 38), tested as culture supernatant of strain F09pyr+ (protein, listed as Talaromyces cellulolyticus)
chain: MYSAFLLLLASATPIVSAQSASWSAAYSKATAALSKLSQNDKIGMVTGVGWGKGPCVGNTAAPSGISFPSLCIQDSPLGVRYANPVTAFPAGTNAGMTWDRTLMNQRGAALGAESKGLGVHVQLGPVAGPLGKIAQGGRGWEGFGTDPYLSGVAMIETISGMQSSGTQACAKHYIGNEQELNRESMSSNIDDRTLHELYLWPFADAVRANVASVMCSYNQINGTFSCENEESMTGILKTELGFPGYIMSDWDAQHTTVTSANSGLDMTMPGSDYSDTPSSVLWGQNLANAISSGQVAQSRLDDMVTRILAAWYLVGQDQGFPAVAFNSWTGGQASVNVTSNHNQVARAVARDSIVLLKNTNSTLPLNKPSSIAIIGTDAQTNPSGPNACTDRGCDTGTLAMGWGSGTCQFPYLTDPLTAIKTRAASDGTTITTSISDNGSAGASVAQSAEYAIVFINSDSGEGYITVEGVAGDRNNLDPWHSGNALVQSVAAVNKKTIVVIHSVGPVILETILAQPNVVAVVWAGIPGQESGSALTDILYGSTAPSGKLTYTIAKQASDYGTAVVSGSDNYPEGLFIDYRHFDKSNIEPRYEFGYGLSYTTFGYTNLAIDITVSTGPTTGQIVPGGPSDLFESVGTVTVQVANTGSVAGSEVAQLYIGLPSSAPSSPPKQLRGFDKLSLAAGASGTATFDLTRRDLSYWDVSKQKWVVPSGAFTVYVGASSRDIRLQGTFTPGGSSTTSTITSSKTSTTISTSVTTSSSTTAKTTTTSSTTSSAGPTQTPYGQCGGQGWTGPTVCSSGWTCKVTNQWYSQCLQ
[8]
  generation of gentiobiose from cellobiose: can generate gentiobiose from cellobiose
[9]
  generation of gentiobiose from glucose: can generate gentiobiose from glucose in a concentration-dependent manner
